Test [1] has as its target T1, Sheep seminal vesicle (SSV) cyclooxygenase (Ovis aries, UniProt P05979).
T1 construct: Sheep seminal vesicle (SSV) cyclooxygenase (95% pure); purchased Biomol (Plymouth Meeting, PA); host or cells: sheep seminal vesicle
T1 sequence (P05979 25-600): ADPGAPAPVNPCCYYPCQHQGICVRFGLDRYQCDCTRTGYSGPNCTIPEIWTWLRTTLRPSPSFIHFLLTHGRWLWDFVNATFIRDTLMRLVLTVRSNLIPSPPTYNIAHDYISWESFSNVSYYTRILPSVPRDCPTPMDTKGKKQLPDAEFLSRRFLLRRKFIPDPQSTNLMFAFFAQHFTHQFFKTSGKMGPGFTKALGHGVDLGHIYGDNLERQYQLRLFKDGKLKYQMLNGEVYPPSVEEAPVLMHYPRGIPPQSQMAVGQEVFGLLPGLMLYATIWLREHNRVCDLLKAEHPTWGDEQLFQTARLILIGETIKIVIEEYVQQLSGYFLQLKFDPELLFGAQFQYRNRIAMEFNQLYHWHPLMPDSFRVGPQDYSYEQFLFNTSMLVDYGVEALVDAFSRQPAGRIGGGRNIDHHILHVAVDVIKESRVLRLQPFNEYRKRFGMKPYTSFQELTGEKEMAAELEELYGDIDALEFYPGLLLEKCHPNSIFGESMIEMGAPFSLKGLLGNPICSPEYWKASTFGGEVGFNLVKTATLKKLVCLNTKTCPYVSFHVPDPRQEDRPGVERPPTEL
As to the kind of experiment: Procedure I: inhibition of sheep seminal vesicle (SSV) cyclooxygenase. Type of test: biochemical. Conditions: SSV cyclooxygenase; for IC50: read-out: Proc. I IC50; for inhibition at 10 µM: 20 min, @ 10 .quadrature.M, read-out: Proc. I % inhibition. Here is the method:
Procedure I was used to determine the ability of the compounds to inhibit cyclooxygenase. […] The enzyme was divided into 200 μL aliquots, snap frozen with liquid N2, and stored at -70° C. until immediately prior to use. […] The tubes were mixed on a vortex shaker, preincubated for 5 min at 37° C. prior to the initiation of the reaction. The reaction was started by the addition of [^14 C]-arachidonic acid (1-^14 C-AA, Amersham, Arlington Heights, Ill.) in 10 μL of methanol. Tubes were again vortexed and incubated in a water bath for 20 minutes after which the tubes were removed and the reaction stopped by acidification with the addition of 1 mL 2M formic acid. Lipophilic products were extracted with 3 mL chloroform and concentrated to dryness under N2. Each pellet was reconstituted with 40 μL of chloroform and spotted on a Whatman Silicon thin-layer chromatography plate and developed in a chromatography tank containing A-9 solvent (11:5:2:1 V:V:VV, ethyl acetate:trimethyl-pentane:acetic acid:double distilled-H2 O). Radioactive cyclooxygenase products (prostaglandin D2, prostaglandin E2, etc.) were measured using a Bioscan System 200 Imaging Scanner. Inhibition of enzyme activity was calculated by comparing the areas under the curve produced in the presence or absence of test compound.

In test [2] the target is T2, 5-LO (Rattus norvegicus, UniProt P12527).
T2 construct: the supernatant was saved as the source of enzymes; endogenous in cells; host or cells: RBL-1 (rat basophilic leukemia) cells
T2 sequence (P12527 1-673): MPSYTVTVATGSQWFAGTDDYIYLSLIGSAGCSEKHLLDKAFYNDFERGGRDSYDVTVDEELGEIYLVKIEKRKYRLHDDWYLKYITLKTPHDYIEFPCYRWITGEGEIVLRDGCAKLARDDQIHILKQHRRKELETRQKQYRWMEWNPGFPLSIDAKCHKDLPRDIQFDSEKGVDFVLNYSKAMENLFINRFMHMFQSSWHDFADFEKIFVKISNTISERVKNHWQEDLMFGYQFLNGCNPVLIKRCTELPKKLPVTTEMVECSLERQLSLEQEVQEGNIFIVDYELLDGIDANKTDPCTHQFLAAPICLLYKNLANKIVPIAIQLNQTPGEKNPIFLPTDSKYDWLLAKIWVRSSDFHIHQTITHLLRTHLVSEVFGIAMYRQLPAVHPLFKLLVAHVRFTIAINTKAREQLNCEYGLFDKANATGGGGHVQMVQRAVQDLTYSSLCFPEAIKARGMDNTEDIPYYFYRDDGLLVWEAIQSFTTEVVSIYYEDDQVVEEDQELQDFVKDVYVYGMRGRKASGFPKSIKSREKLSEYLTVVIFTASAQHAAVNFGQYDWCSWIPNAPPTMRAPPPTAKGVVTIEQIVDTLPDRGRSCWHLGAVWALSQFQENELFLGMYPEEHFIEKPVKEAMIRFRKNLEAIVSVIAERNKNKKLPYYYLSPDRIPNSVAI
As to the kind of experiment: Procedure III: 5-LO (5-HETE) in intact RBL-1 cells. It is filed as cell-based. To be noted: calcium ionophore A 23187, read-out: Proc. III 5-LO IC50. Here is the method:
(§1) The IC50 was determined using a curve fit in Cricket Graph (Computer Associated), which provided the equation of the regressed line used in the calculation.
(§2) In Procedure III, the ability to inhibit 5-LO and CO in intact RBL-1 cells was also evaluated. […] Cells were collected by centrifugation, washed once in HBSS, and resuspended at a concentration of 1×10^5 cells/mL. Cells were incubated in the presence of vehicle or drug then centrifuged at 800×g for 10 minutes at 4° C. The supernatant was removed by aspiration and the cells were resuspended in 0.5 mL of HBSS. […] The conversion of AA to 5-LO products was initiated by the addition of 10 μL (50 μCi) of 1-^14 C-AA. Products were isolated by acidification and extraction, followed by thin layer chromatography analysis as described above. Radioactive areas corresponding to authentic 5-LO (5-HETE) and CO (PgD2) products were quantitated by the Bioscan 2000 Imaging System and the IC50 was calculated as above.

Test [3] has as its target T3, CO (Rattus norvegicus, UniProt Q63921).
T3 construct: the supernatant was saved as the source of enzymes; endogenous in cells; host or cells: RBL-1 (rat basophilic leukemia) cells
T3 sequence (Q63921 27-602): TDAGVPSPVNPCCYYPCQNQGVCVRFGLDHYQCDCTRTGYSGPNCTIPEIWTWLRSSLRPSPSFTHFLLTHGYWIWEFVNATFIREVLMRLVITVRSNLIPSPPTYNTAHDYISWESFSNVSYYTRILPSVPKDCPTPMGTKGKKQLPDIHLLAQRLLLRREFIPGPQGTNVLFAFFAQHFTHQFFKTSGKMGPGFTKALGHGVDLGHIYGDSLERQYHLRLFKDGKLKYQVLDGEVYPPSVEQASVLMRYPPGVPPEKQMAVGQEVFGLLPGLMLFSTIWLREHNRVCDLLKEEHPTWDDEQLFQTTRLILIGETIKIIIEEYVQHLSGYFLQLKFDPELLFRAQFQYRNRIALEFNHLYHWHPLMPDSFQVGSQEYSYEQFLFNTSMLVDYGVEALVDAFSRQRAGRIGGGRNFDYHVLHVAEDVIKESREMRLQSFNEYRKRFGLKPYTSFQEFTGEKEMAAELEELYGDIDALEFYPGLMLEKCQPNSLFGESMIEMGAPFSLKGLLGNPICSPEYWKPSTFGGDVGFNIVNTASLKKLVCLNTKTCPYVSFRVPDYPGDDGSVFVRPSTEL
As to the kind of experiment: Procedure II: CO activity in broken RBL-1 cells (homogenate supernatant). Type of test: biochemical. To be noted: RBL-1 broken cell supernatant; for IC50: read-out: Proc. II CO IC50; for inhibition at 10 µM: 20 min, @ 10 .quadrature.M, read-out: Proc. II CO % inhibition. Here is the method:
(§3) Procedure II was used to assess LO and CO activity. Rat basophilic leukemia cells (RBL-1; 5×10^7 viable cells/mL) were disrupted by homogenization on ice (four 20 sec bursts) with a Brinkman polytron. […] The homogenate was then centrifuged at 9,220×g for 48 minutes at 4° C. The pellet was discarded and the supernatant was saved as the source of enzymes. The supernatant was pre-incubated for five minutes at 37° C. in the presence of 2 mM of CaCl2 and compound or vehicle (1% DMSO). The conversion of AA into products by CO and LO was initiated by adding 10 μL (50 μCi) of 1-^14 C-AA to each tube and incubated at 37° C. for 20 minutes. The reaction was stopped by adjusting the pH of each sample to 3 to 3.5 with 2M formic acid. Samples were extracted with three volumes of chloroform to isolate the products of 5-LO formed during the reaction. Fractions were dried under nitrogen, then resuspended in 40 μL of chloroform and spotted onto silica gel HL plates. The plates were developed in A-9 solvent. The dried plates were analyzed using a Bioscan Imaging TLC scanner to determine the percentage of radiolabelled AA converted to 5-HETE (LO product) in each sample. The percentage of inhibition was calculated by:
(§4) [1-(5-HETE test)]/5-HETE control×100=% inhibition
as §1

The target in test [4] is T2, 5-LO. Put plainly: Procedure II: 5-LO activity (5-HETE) in broken RBL-1 cells (homogenate supernatant). It is filed as biochemical. To be noted: RBL-1 broken cell supernatant; for IC50: read-out: Proc. II 5-LO IC50; for inhibition at 10 µM: 20 min, @ 10 .quadrature.M, read-out: Proc. II 5-LO % inhibition. Here is the method:
as §3, §4, §1

For test [5], the target named is T3, CO. Put plainly: Procedure III: CO (PgD2) in intact RBL-1 cells. It is filed as cell-based. To be noted: calcium ionophore A 23187, read-out: Proc. III CO IC50. Here is the method:
as §1, §2

In patent publication US5925769A, “Acetylenic 1,5-diarylpyrazoles as antiinflammatory agents” (Ortho Pharmaceutical, Corp., priority 1998, dated 1999) one finds IC50 and inhibition data, which are given here for eleven compounds.

As a reminder, the IC50 is the midpoint of a concentration-inhibition curve. As to `CCc1ccc(-c2cc(C#CC(C)N(O)C(C)=O)nn2-c2ccc(OC)cc2)cc1` (stereo not shown) [Cpd 29, N-acetyl-N-(1-(5-(4-ethylphenyl)-1-(4-methoxyphenyl)pyrazol-3-yl)-1-butyn-3-yl)hydroxylamine], the half-inhibitory concentration (IC50) worked out at 2510 nM in test [1]; 11900 nM at 5-LO [2]; 60 nM on CO [3]; 270 nM at 5-LO [4]; 340 nM on CO [5].

What is called inhibition is how much of the control response was suppressed. On to `COc1ccc(-n2nc(C#CC(C)N(O)C(N)=O)cc2-c2ccc(C)cc2)cc1` (stereo not shown) [Cpd 2, N-hydroxy-N-(1-(1-(4-methoxyphenyl)-5-(4-methylphenyl)pyrazol-3-yl)-1-butyn-3-yl)urea], for which the inhibition at 10 µM in test [1] came out at 10%. Besides, the IC50 on 5-LO [2] was found to be 7700 nM; at CO [3], 9400 nM; on 5-LO [4], 370 nM; at CO [5], 1400 nM.

As to `CCC(C#Cc1cc(-c2ccc(C)cc2)n(-c2ccc(OC)cc2)n1)N(O)C(C)=O` (stereo not shown) [Cpd 28, N-acetyl-N-(1-(1-(4-methoxyphenyl)-5-(4-methylphenyl)pyrazol-3-yl)-1-pentyn-3-yl)hydroxylamine], the IC50 in test [1] was determined as 430 nM; at 5-LO [2], 10700 nM; on CO [3], 10 nM; on 5-LO [4], 70 nM; on CO [5], 220 nM.

`COc1ccc(-n2nc(C#CC(C)N(O)C(=O)N3CCOCC3)cc2-c2ccc(Cl)cc2)cc1` (stereo not shown) [Cpd 10]: the inhibition at 10 µM in test [1] worked out at 14%; on CO [3], 58%; on 5-LO [4], 81%. For the same compound, the IC50 at 5-LO [2] is 12000 nM; at CO [5], 1600 nM.

For `COc1ccc(-n2nc(C#CC(C)N(O)C(C)=O)cc2-c2ccc(C)cc2)cc1` (stereo not shown) [Cpd 18, N-Acetyl-N-(1-(1-(4-methoxyphenyl)-5-(4-methylphenyl)pyrazol-3-yl)-1-butyn-3-yl)hydroxylamine], the IC50 worked out at 310 nM in test [1]; 13100 nM on 5-LO [2]; 10 nM at CO [3]; 80 nM at 5-LO [4]; 110 nM at CO [5].

In the case of `CCc1ccc(-c2cc(C#CC(C)N(O)C(=O)C(C)C)nn2-c2ccc(OC)cc2)cc1` (stereo not shown) [Cpd 30, N-isobutyryl-N-(1-(5-(4-ethylphenyl)-1-(4-methoxyphenyl)pyrazol-3-yl)-1-butyn-3-yl)hydroxylamine], the IC50 in test [1] is 590 nM; at 5-LO [2] it was 13100 nM; at CO [5] it was 180 nM. Besides, the inhibition at 10 µM on CO [3] is 73%; at 5-LO [4], 93%.

Consider `CCOC(=O)CCC(=O)N(O)C(C)C#Cc1cc(-c2ccc(C)cc2)n(-c2ccc(OC)cc2)n1` (stereo not shown) [Cpd 22], for which the IC50 came out at 2930 nM in test [1], 10100 nM on 5-LO [2] and 10000 nM at CO [5]. Besides, the inhibition at 10 µM at CO [3] amounted to 100%; at 5-LO [4], 97%.

On to `CCC(C#Cc1cc(-c2ccc(Cl)cc2)n(-c2ccc(OC)cc2)n1)N(O)C(N)=O` (stereo not shown) [Cpd 11], for which the inhibition at 10 µM in test [1] stood at 0%; on CO [3], 30%; at 5-LO [4] it was 91%. In addition, the IC50 at 5-LO [2] was determined as 2170 nM; on CO [5], 70400 nM.

Turning to `COC(=O)N(O)C(C)C#Cc1cc(-c2ccc(C)cc2)n(-c2ccc(OC)cc2)n1` (stereo not shown) [Cpd 27], the IC50 is 530 nM in test [1]; 7100 nM at 5-LO [2]; 140 nM at CO [3]; 280 nM on 5-LO [4]; 490 nM at CO [5].

In the case of `CCc1ccc(-c2cc(C#CC(C)N(O)C(=O)OC)nn2-c2ccc(OC)cc2)cc1` (stereo not shown) [Cpd 34], the inhibition at 10 µM in test [1] was determined as 21%; on CO [3], 72%; on 5-LO [4], 78%. Besides, the values for the IC50 at 5-LO [2] and at CO [5] were 57400 nM and 750 nM, respectively.

For the compound `COc1ccc(-n2nc(C#CC(C)N(O)C(=O)Cn3ccnc3)cc2-c2ccc(C)cc2)cc1` (stereo not shown) [Cpd 43, N-(imidazol-1-yl)acetyl-N-(1-(1-(4-methoxyphenyl)-5-(4-methylphenyl)pyrazol-3-yl)-1-butyn-3-yl)hydroxylamine], the IC50 was determined as 10000 nM in test [1], 38700 nM at 5-LO [2] and 3600 nM at CO [5]. Besides, the inhibition at 10 µM on CO [3] was determined as 13%; on 5-LO [4], 67%.
